Here are results for 13 compounds from ChEMBL document CHEMBL1138689, “Synthesis of 5a-carba-hexopyranoses and hexopyranosylamines, as well as 5a,5a'-dicarbadisaccharides, from 3,8-dioxatricyclo[4.2.1.0(2,4)]nonan-9-ol: glycosidase inhibitory activity of N-substituted 5a-carba-beta-gluco- and beta-galactopyranosylamines, and derivatives thereof” (Bioorg Med Chem Lett, 2004).

Where only a bound is given, the exact number is not on record here.

The nature of test [1]: Inhibition of Alpha-galactosidase of green coffee beans.
Test [2] can be described thus: Inhibition of Alpha-galactosidase of green coffee beans; […].
A further test has as its target T1, Beta-galactosidase (Bos taurus, UniProt Q58D55).
T1 sequence (Q58D55 whole entry): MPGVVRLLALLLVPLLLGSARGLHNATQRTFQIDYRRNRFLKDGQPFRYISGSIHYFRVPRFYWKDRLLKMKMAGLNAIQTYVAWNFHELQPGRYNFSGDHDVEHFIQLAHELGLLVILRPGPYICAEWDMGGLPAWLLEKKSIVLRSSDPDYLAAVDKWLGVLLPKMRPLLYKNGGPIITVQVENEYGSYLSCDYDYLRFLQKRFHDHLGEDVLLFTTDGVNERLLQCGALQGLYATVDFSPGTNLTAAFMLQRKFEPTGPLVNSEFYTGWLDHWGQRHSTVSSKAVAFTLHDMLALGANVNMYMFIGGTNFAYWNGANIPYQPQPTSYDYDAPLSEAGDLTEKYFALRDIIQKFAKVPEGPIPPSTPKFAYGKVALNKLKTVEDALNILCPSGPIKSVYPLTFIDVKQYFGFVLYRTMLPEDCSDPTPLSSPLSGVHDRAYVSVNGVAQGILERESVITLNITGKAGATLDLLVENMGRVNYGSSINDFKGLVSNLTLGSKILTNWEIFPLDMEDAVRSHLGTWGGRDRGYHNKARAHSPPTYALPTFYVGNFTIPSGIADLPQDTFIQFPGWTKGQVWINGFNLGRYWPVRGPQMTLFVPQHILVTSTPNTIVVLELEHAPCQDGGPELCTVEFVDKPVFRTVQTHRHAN
Put plainly: Inhibition of Beta-galactosidase of bovine liver; […].

Test [3] is described as follows: Inhibition of Alpha-Glucosidase of Bakers yeast; NI=no inhibition. Further details: species or system Saccharomyces cerevisiae; call rule not given here.
Test [4] addresses T2, Tissue alpha-L-fucosidase (Bos taurus, UniProt Q2KIM0).
T2 sequence (Q2KIM0 whole entry): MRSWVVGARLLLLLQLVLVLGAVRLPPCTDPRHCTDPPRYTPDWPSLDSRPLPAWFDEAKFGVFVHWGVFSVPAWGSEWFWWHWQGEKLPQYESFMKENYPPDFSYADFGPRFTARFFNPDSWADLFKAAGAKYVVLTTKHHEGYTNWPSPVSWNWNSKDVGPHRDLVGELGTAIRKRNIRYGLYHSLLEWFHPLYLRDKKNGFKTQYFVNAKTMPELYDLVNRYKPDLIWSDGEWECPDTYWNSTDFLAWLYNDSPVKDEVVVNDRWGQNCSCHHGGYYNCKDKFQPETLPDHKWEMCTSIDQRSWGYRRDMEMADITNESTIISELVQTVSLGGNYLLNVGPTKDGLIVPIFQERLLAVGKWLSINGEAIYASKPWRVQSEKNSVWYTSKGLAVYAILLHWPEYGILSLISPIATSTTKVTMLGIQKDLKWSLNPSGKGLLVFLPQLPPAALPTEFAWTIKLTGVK
Put plainly: Inhibition of Alpha-fucosidase of bovine kidney; NI=no inhibition.

Test [5] in a line: Inhibition of Alpha-galactosidase of green coffee beans; NI=no inhibition.
The nature of test [6]: Compound was tested for the inhibition of alpha-Glucosidase of Bakers yeast; NI denotes no inhibition. The arrangement: species or system Saccharomyces cerevisiae.

Compound `N[C@H]1C[C@H](CO)[C@@H](O)[C@H](O)[C@H]1O` showed an IC50 in test [1] of 2.8 µM.

Regarding `CC(=O)NC1CC(CO)C(O)C(O)C1O` (centres undefined), in test [2], the IC50 is above 1000 µM.

The compound `CCCCCCCCNC1CC(CO)C(O)C(O)C1O` (centres undefined) showed an IC50 in test [2] above 1000 µM.

`CCCCCCCCNC1CC(C)C(O)C(O)C1O` (centres undefined) showed an IC50 in test [2] above 1000 µM.

Regarding `CO[C@@H]1CC2COC(C1O)[C@H]2NC1CC(CO)C(O)C(O)C1O` (some centres undefined), in test [1], half-maximal inhibition (IC50) was put at 1.2 µM.

With `C=C1CC(NCCCCCCCC)C(O)C(O)C1O` (centres undefined), in test [2], the IC50 was above 1000 µM.

In the case of `CCCCCCCCCCCCN[C@@H]1C[C@@H]2CO[C@H](C2O)[C@H]1O` (single isomer, unassigned), the IC50 entry is on record as “No inhibition” on Beta-galactosidase, “Not Active” in test [3], “Not Active” in test [4] and “Not Active” in test [5].

For `OC1[C@H]2CO[C@H]1[C@@H](O)[C@H](NCc1ccccc1)C2` (single isomer, unassigned), the IC50 result at Beta-galactosidase was “No inhibition”; in test [3] it was “Not Active”; in test [4], “Not Active”; in test [5] it was “Not Active”.

On to `CCCCCCCCN[C@@H]1C[C@@H]2CO[C@H](C2O)[C@H]1O` (single isomer, unassigned), for which the IC50 entry at Beta-galactosidase is given as “No inhibition”; in test [3], “Not Active”; in test [4], “Not Active”; in test [5], “Not Active”.

For `CCCCCCCCCCN[C@@H]1C[C@@H]2CO[C@H](C2O)[C@H]1O` (single isomer, unassigned), the IC50 entry is “No inhibition” at Beta-galactosidase, “Not Active” in test [3], “Not Active” in test [4] and “Not Active” in test [5].

In the case of `OC1[C@H]2CO[C@H]1[C@@H](O)[C@H](NCCc1ccccc1)C2` (single isomer, unassigned), the IC50 entry is listed as “No inhibition” against Beta-galactosidase, “Not Active” in test [4], “Not Active” in test [6] and “Not Active” in test [5].

`CCCCN[C@@H]1C[C@@H]2CO[C@H](C2O)[C@H]1O` (single isomer, unassigned): the IC50 entry at Beta-galactosidase was “No inhibition”; in test [3], “Not Active”; in test [4] it was “Not Active”; in test [5], “Not Active”.

Regarding `CCCCCCN[C@@H]1C[C@@H]2CO[C@H](C2O)[C@H]1O` (single isomer, unassigned), the IC50 entry at Beta-galactosidase is listed as “No inhibition”; in test [3] it was “Not Active”; in test [4], “Not Active”; in test [5] it was “Not Active”.

A word on the IC50: it is the midpoint of a concentration-inhibition curve. A low value points to inhibition by little substance.
